According to the NIST ThermoML archive (doi:10.1016/j.jct.2006.01.011):
± gives the expanded uncertainty stated by the source.

Columns and labels:
[1] = wn = mass fraction of the nth substance listed; conditions: 293.15 K, 101.33 kPa, Liquid; for viscosity: Capillary tube (Ostwald / Ubbelohde) method; for mass density: Vibrating tube method
[2] = cn = amount concentration of the nth substance listed, in mol/dm3; conditions: 293.15 K, 101 kPa, Liquid; for viscosity: Capillary tube (Ostwald / Ubbelohde) method; for electrical conductivity: Frequency=0.001 MHz, digital bridge-type conductivity meter; for mass density: Vibrating tube method
[3] = 293.15 K, 101.33 kPa, Liquid; for viscosity: Capillary tube (Ostwald / Ubbelohde) method
[4] = refractive index (Na D-line) (dimensionless); conditions: 293.15 K; 101.33 kPa; Liquid; Standard Abbe refractometry

## OCCO [1,2-ethanediol] + O
[1]; w1 = 0.1
  viscosity: 1.293 ± 0.009 mPa·s
  mass density: 1011.1 ± 0.05 kg/m3
[1]; w1 = 0.2
  viscosity: 1.671 ± 0.012 mPa·s
  mass density: 1024.49 ± 0.05 kg/m3
[1]; w1 = 0.3
  viscosity: 2.177 ± 0.016 mPa·s
[1]; w1 = 0.4
  viscosity: 2.837 ± 0.022 mPa·s
  mass density: 1049.89 ± 0.12 kg/m3
[1]; w1 = 0.5
  viscosity: 3.558 ± 0.029 mPa·s
  mass density: 1062.42 ± 0.09 kg/m3
[1]; w1 = 0.6
  viscosity: 4.724 ± 0.041 mPa·s
[1]; w1 = 0.7
  viscosity: 6.36 ± 0.06 mPa·s
  mass density: 1085.2 ± 0.11 kg/m3
[1]; w1 = 0.8
  viscosity: 8.003 ± 0.081 mPa·s
  mass density: 1095.34 ± 0.11 kg/m3
[1]; w1 = 0.9
  viscosity: 14 ± 0.17 mPa·s
  mass density: 1103.7 ± 0.13 kg/m3

## O [water] + OCCO
[1]; w2 = 0
  viscosity: 1.008 ± 0.007 mPa·s

## O=S(=O)([O-])[O-].[Zn+2] [zinc sulfate] + O
[2]; c1 = 0.0084
  viscosity: 1.015 ± 0.007 mPa·s
  mass density: 999.63 ± 0.18 kg/m3
[2]; c1 = 0.0194
  viscosity: 1.022 ± 0.007 mPa·s
  mass density: 1001.48 ± 0.17 kg/m3
[2]; c1 = 0.0403
  viscosity: 1.036 ± 0.007 mPa·s
  mass density: 1004.95 ± 0.18 kg/m3
[2]; c1 = 0.0545
  viscosity: 1.045 ± 0.007 mPa·s
  mass density: 1007.37 ± 0.15 kg/m3
[2]; c1 = 0.0714
  viscosity: 1.054 ± 0.007 mPa·s
  mass density: 1009.43 ± 0.16 kg/m3
[2]; c1 = 0.0795
  viscosity: 1.062 ± 0.007 mPa·s
  mass density: 1011.4 ± 0.19 kg/m3
[2]; c1 = 0.0979
  viscosity: 1.074 ± 0.008 mPa·s
  mass density: 1014.39 ± 0.17 kg/m3
[2]; c1 = 0.1391
  viscosity: 1.103 ± 0.008 mPa·s
  mass density: 1021.1 ± 0.17 kg/m3
[2]; c1 = 0.1756
  viscosity: 1.127 ± 0.008 mPa·s
  mass density: 1027.12 ± 0.17 kg/m3
[2]; c1 = 0.1998
  viscosity: 1.144 ± 0.008 mPa·s
  mass density: 1030.93 ± 0.17 kg/m3
[2]; c1 = 5e-05
  electrical conductivity: 0.00119 ± 1e-05 S/m
  mass density: 998.22 ± 0.19 kg/m3
[2]; c1 = 0.00011
  electrical conductivity: 0.00229 ± 1e-05 S/m
  mass density: 998.23 ± 0.19 kg/m3
[2]; c1 = 0.00019
  electrical conductivity: 0.00391 ± 2e-05 S/m
  mass density: 998.25 ± 0.18 kg/m3
[2]; c1 = 0.00042
  electrical conductivity: 0.0084 ± 3e-05 S/m
  mass density: 998.29 ± 0.18 kg/m3
[2]; c1 = 0.00063
  electrical conductivity: 0.01218 ± 5e-05 S/m
  mass density: 998.32 ± 0.16 kg/m3
[2]; c1 = 0.00083
  electrical conductivity: 0.0154 ± 6e-05 S/m
  mass density: 998.36 ± 0.17 kg/m3
[2]; c1 = 0.00101
  electrical conductivity: 0.01833 ± 7e-05 S/m
  mass density: 998.39 ± 0.16 kg/m3
[2]; c1 = 0.00127
  electrical conductivity: 0.02201 ± 9e-05 S/m
  mass density: 998.41 ± 0.15 kg/m3

## OCCO [1,2-ethanediol]
[3]
  viscosity: 20.81 ± 0.3 mPa·s
[3]; Vibrating tube method
  mass density: 1113.23 ± 0.3 kg/m3
[4]
  refractive index: 1.4319 ± 0.0007

## O [water]
[3]
  viscosity: 1.008 ± 0.007 mPa·s
